Data from patent US3971757A, “3-Alkyl-4-oxo-imidazolidines and their 1-oxyls” (Ciba-Geigy Corporation, priority 1973, dated 1976).

What was measured:
[1] = Compatibility with polyethylene sheets (efflorescence at room temperature); assay type: physicochemical; conditions: 1 mm sheets; for Compatibility 0.1% (number of days over which no efflorescence phenomena are detectable): 0.1 part in 100 parts polyethylene; for Compatibility 0.3% (number of days over which no efflorescence phenomena are detectable): 0.3 part in 100 parts polyethylene
Procedure: (§1) 100 Parts of polyethylene having a density of 0.917 are homogeneously mixed in a Brabender plastograph with 0.1 and 0.3 parts, respectively, of a light-stabilising agent of formula I at 180°C for 10 minutes. The resulting mixture is moulded in a platen press at 170°C to give 1 mm thick sheets, and these are then examined visually for undissolved constituents. The sheets are suspended at room temperature and periodically examined for efflorescence phenomena.
*Compatibility: number of days over which no efflorescence phenomena are […]

[2] = Solubility in polyethylene sheets (visual examination for undissolved constituents); assay type: physicochemical; conditions: 1 mm sheets; for Solubility 0.1%: 0.1 part in 100 parts polyethylene (density 0.917); for Solubility 0.3%: 0.3 part in 100 parts polyethylene (density 0.917)
Procedure: as §1

[3] = Light stabilization of polypropylene film, carbonyl (CO) extinction on exposure in Xenotest 150; conditions: 0.25 part per 100 parts polypropylene, 0.1 mm film, with 0.2 part antioxidant, no light stabilizer: 0.300 at 1,000 hours
Procedure: 100 parts of polypropylene powder (Moplen, fibre grade, from Messrs. Montedison) are homogenised with 0.2 part of β-(3,5-di-tert-butyl-4-hydroxyphenyl)-propionic acid octadecyl ester as the antioxidant and 0.25 part of a light stabilizer from Table 2 below, for 10 minutes in a Brabender plastograph at 200°C. The mass thus obtained is taken from the kneader as rapidly as possible and is pressed in a toggle press to give 2 - 3 mm thick sheets. A part of the pressed blank obtained is cut out and pressed between two high gloss hard aluminium foils for 6 minutes at 260°C and 12 tons pressure, using a manual hydraulic laboratory press, to give an 0.5 mm thick film which is immediately chilled in cold water. The 0.1 mm thick test film is produced from this 0.5 mm film under exactly the same conditions. Pieces of 60 × 44 mm are now punched from the 0.1 mm thick film and exposed in the Xenotest 150. At regular intervals of time, these test specimens are taken from the light exposure apparatus and examined for their carbonyl content in an IR-spectrophotometer. The increase in the carbonyl extinction during exposure to light is a measure of the photo-oxidative degradation of the polymer [see L. Balaban et al., J. Polymer Sci. Part C, 22, 1059-1071 (1969); J. F. Heacock, J. Polymer Sci. Part A-1, 22, 2921-34 (1969); D. J. Carlsson and DM. Wiles, Macromolecules 2,587-606 (1969)] and is, according to experience, associated with a deterioration of the mechanical properties of the polymer. Thus, for example, the film stabilised with antioxidant only is completely brittle when it reaches a carbonyl extinction of approx. 0.300. The protective action of the light stabilizers according to the invention can be seen from the following Table 3: […]

[4] = Light stabilization of polystyrene sheets, yellowing factor after exposure in Xenotest 150; conditions: exposed 2,000 hours in Xenotest 150; 0.25 part per 100 parts polystyrene, 2 mm sheets; no light stabilizer: 20.0
Procedure: 100 parts of polystyrene granules are mixed dry with 0.25 part of a light stabilizer from Table 4 below and the mixture is regranulated in an extruder and subsequently moulded on an injection moulding machine to give 2 mm thick sheets. The sheets obtained are exposed for 2,000 hours in the Xenotest 150 apparatus and their yellowing is determined as follows, from the yellowing factor: [formula] wherein Δ T denotes the loss in transmission at wavelengths 420 and 680 nm respectively, which has occurred during exposure, and T(560) denotes the transmission value in percent of the unexposed sample at 560 nm.

Structure (SMILES): CCCCCCCCN1C(=O)C2(CCCCC2)NC12CCCCC2 [III]
- Compatibility 0.1% (number of days over which no efflorescence phenomena are detectable) [1]: 200 days
- Compatibility 0.3% (number of days over which no efflorescence phenomena are detectable) [1]: 200 days
- Solubility 0.1% [2]: dissolv.
- Solubility 0.3% [2]: dissolv.

Structure (SMILES): C=CCN1C(=O)C2(CCCCC2)NC12CCCCC2 [II]
- Compatibility 0.1% (number of days over which no efflorescence phenomena are detectable) [1]: 200 days
- Compatibility 0.3% (number of days over which no efflorescence phenomena are detectable) [1]: 200 days
- Solubility 0.1% [2]: dissolv.
- Solubility 0.3% [2]: dissolv.

Structure (SMILES): CCCCCCCCCCCCCCCCCCN1C(=O)C2(CCCCC2)NC12CCCCC2 [IV]
- Compatibility 0.1% (number of days over which no efflorescence phenomena are detectable) [1]: 200 days
- Compatibility 0.3% (number of days over which no efflorescence phenomena are detectable) [1]: 200 days
- Solubility 0.1% [2]: dissolv.
- Solubility 0.3% [2]: dissolv.

Structure (SMILES): O=C1N(Cc2ccccc2)C2(CCCCC2)NC12CCCCC2 [I]
- CO extinction (5.85 μ) ([3]; exposure time 6,000 hours): 0.010
- Y.F. (yellowing factor) [4]: 4.5

Structure (SMILES): CCCCCCCCOC(=O)CN1C(=O)C2(CCCCC2)NC12CCCCC2 [VIII]
- Compatibility 0.1% (number of days over which no efflorescence phenomena are detectable) [1]: 200 days
- Compatibility 0.3% (number of days over which no efflorescence phenomena are detectable) [1]: 200 days
- Solubility 0.1% [2]: dissolv.
- Solubility 0.3% [2]: dissolv.

Structure (SMILES): O=C1N(CCCCN2C(=O)C3(CCCCC3)NC23CCCCC3)C2(CCCCC2)NC12CCCCC2 [VI]
- CO extinction (5.85 μ) ([3]; exposure time 6,000 hours): 0.010
- Y.F. (yellowing factor) [4]: 5.5

Structure (SMILES): O=C(CN1C(=O)C2(CCCCC2)NC12CCCCC2)OCC(COC(=O)CN1C(=O)C2(CCCCC2)NC12CCCCC2)(COC(=O)CN1C(=O)C2(CCCCC2)NC12CCCCC2)COC(=O)CN1C(=O)C2(CCCCC2)NC12CCCCC2 [XI]
- CO extinction (5.85 μ) ([3]; exposure time 5,000 hours): 0.010
